What is called IC50 is the concentration at which inhibition is half-maximal.

For one assay, the system named is β-catenin/Tcf-4. Nature of the assay: cells. In kind it is cell-based. Particulars: Homo sapiens, 24 hours of incubation with compound, ratio Firefly/Renilla luciferase. Put shortly:
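SW480-derived lines with integrated reporters (Tcf-4-driven firefly luciferase; SV40 firefly as specificity control; SV40 Renilla for cell number/toxicity), treated 24 hours with titrated compounds, final 0.316% DMSO. Dual-luciferase read-out; firefly/Renilla ratio as % of control, duplicate plates, IC50 (nM) from curve fit.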

The test system of another assay is SV40-Luc. Kind of assay: SV40-Luc control luciferase reporter assay, SV 5A8 cell line (SV40-Luc and SV40-R-Luc), control for non-specific inhibitors. It is filed as cell-based, human. The settings on record: Homo sapiens, SV5A8, 24 h, SV 5A8 cells derived from SW480; 24 hours of incubation with compound; ratio Firefly/Renilla luciferase. The method, boiled down:
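Compound exposure lasted 24 h, starting 20-24 h after seeding 1×10^4 cells/well, with titrated doses and 0.316% final DMSO. Readout was dual firefly/Renilla luminescence; Renilla under an SV40 promoter corrects for cell number and toxicity, and SV 5A8 (SV40 firefly) flags non-specific inhibitors versus Tcf-4-driven lines 33.13 and 22C11. IC50s came from the F/R ratio (% of control).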
Background: A reporter such as luciferase makes a cellular process visible.

The mark [1] stands for this setting: SW480, 24 h, Tcf 33.13 cells derived from SW480.
The mark [2] stands for this setting: Tcf22C11, 24 h, Tcf 22C11 cells derived from SW480.

For `CN(C)c1nc(NCc2ccc(NC(=O)C3CCN(Cc4ccccc4)CC3)cc2)c2cc(I)ccc2n1` [Example 74, 1-benzyl-N-[4-({[2-(dimethylamino)-6-iodoquinazolin-4-yl]amino}methyl)phenyl]piperidine-4-carboxamide], the IC50 in the assay with β-catenin/Tcf-4 (setting [1]) is 1380 nM; with β-catenin/Tcf-4 (setting [2]), 950 nM; in the assay with SV40-Luc it was more than 8060 nM.

Consider `C=Cc1ccc2nc(N(C)C)nc(NCc3ccc(NC(=O)C4CCN(Cc5ccccc5)CC4)cc3)c2c1` [Example 75, 1-benzyl-N-[4-({[2-(dimethylamino)-6-vinylquinazolin-4-yl]amino}methyl)phenyl]-piperidine-4-carboxamide], for which the IC50 in the assay with β-catenin/Tcf-4 (setting [1]) was 287 nM; in the assay on β-catenin/Tcf-4 (setting [2]), 437 nM; with SV40-Luc, more than 4490 nM.

As for `Cc1cccc2c(NCc3ccc(NC(=O)C4CCN(Cc5ccccc5)CC4)cc3)nc(N(C)C)nc12` [Example 76, 1-benzyl-N-[4-({[2-(dimethylamino)-8-methylquinazolin-4-yl]amino}methyl)phenyl]piperidine-4-carboxamide], the IC50 with β-catenin/Tcf-4 (setting [1]) is 2150 nM; with β-catenin/Tcf-4 (setting [2]) it was 1560 nM; in the assay with SV40-Luc, more than 9170 nM.

In the case of `Cc1ccc2nc(N3CCCC3)nc(NCc3ccc(NC(=O)C4CCN(Cc5ccccc5)CC4)cc3)c2c1` [Example 77, 1-benzyl-N-(4-{[(6-methyl-2-pyrrolidin-1-ylquinazolin-4-yl)amino]methyl}phenyl)piperidine-4-carboxamide], the IC50 with β-catenin/Tcf-4 (setting [1]) was 847 nM; with β-catenin/Tcf-4 (setting [2]), 2260 nM; in the assay with SV40-Luc, more than 8230 nM.

For `Cc1ccc2nc(N3C[C@@H](C)N[C@@H](C)C3)nc(NCc3ccc(NC(=O)C4CCN(Cc5ccccc5)CC4)cc3)c2c1` [Example 78, 1-benzyl-N-{4-[({2-[(3R,5S)-3,5-dimethylpiperazin-1-yl]-6-methylquinazolin-4-yl}amino)methyl]phenyl}piperidine-4-carboxamide], the 50% inhibitory concentration (IC50) in the assay with β-catenin/Tcf-4 (setting [1]) was 955 nM; in the assay with β-catenin/Tcf-4 (setting [2]), 1390 nM; with SV40-Luc it was more than 17300 nM.

As to `Cc1ccc2nc(N3CCN(c4ccccn4)CC3)nc(NCc3ccc(NC(=O)C4CCN(Cc5ccccc5)CC4)cc3)c2c1` [Example 79, 1-benzyl-N-[4-({[6-methyl-2-(4-pyridin-2-ylpiperazin-1-yl)quinazolin-4-yl]amino}methyl)phenyl]piperidine-4-carboxamide], the half-inhibitory concentration (IC50) is 1680 nM with β-catenin/Tcf-4 (setting [1]), 2350 nM in the assay on β-catenin/Tcf-4 (setting [2]) and more than 16000 nM with SV40-Luc.

For the compound `Cc1ccc2nc(N3CC=CC3)nc(NCc3ccc(NC(=O)C4CCN(Cc5ccccc5)CC4)cc3)c2c1` [Example 80, 1-benzyl-N-[4-({[2-(2,5-dihydro-1H-pyrrol-1-yl)-6-methylquinazolin-4-yl]amino}methyl)phenyl]piperidine-4-carboxamide], the concentration for half-maximal inhibition (IC50) was 597 nM in the assay on β-catenin/Tcf-4 (setting [1]), 761 nM with β-catenin/Tcf-4 (setting [2]) and more than 9390 nM with SV40-Luc.

Take `Cc1ccc2nc(NCc3ccco3)nc(NCc3ccc(NC(=O)C4CCN(Cc5ccccc5)CC4)cc3)c2c1` [Example 81, 1-benzyl-N-{4-[({2-[(2-furylmethyl)amino]-6-methylquinazolin-4-yl}amino)methyl]phenyl}piperidine-4-carboxamide]: the IC50 in the assay with β-catenin/Tcf-4 (setting [1]) is more than 8920 nM; in the assay on β-catenin/Tcf-4 (setting [2]), more than 8920 nM; with SV40-Luc, more than 17800 nM.

`Cc1ccc2nc(N3CCN(c4ncccn4)CC3)nc(NCc3ccc(NC(=O)C4CCN(Cc5ccccc5)CC4)cc3)c2c1` [Example 82, 1-benzyl-N-[4-({[6-methyl-2-(4-pyrimidin-2-ylpiperazin-1-yl)quinazolin-4-yl]amino}methyl)phenyl]piperidine-4-carboxamide]: the IC50 is 891 nM in the assay on β-catenin/Tcf-4 (setting [1]), 872 nM in the assay on β-catenin/Tcf-4 (setting [2]) and more than 7960 nM in the assay on SV40-Luc.

In the case of `Cc1ccc2nc(N3CCC(N4CCCC4)CC3)nc(NCc3ccc(NC(=O)C4CCN(Cc5ccccc5)CC4)cc3)c2c1` [Example 83, 1-benzyl-N-[4-({[6-methyl-2-(4-pyrrolidin-1-ylpiperidin-1-yl)quinazolin-4-yl]amino}methyl)phenyl]piperidine-4-carboxamide], the half-inhibitory concentration (IC50) was 425 nM in the assay on β-catenin/Tcf-4 (setting [1]), 511 nM with β-catenin/Tcf-4 (setting [2]) and more than 4050 nM with SV40-Luc.

`Cc1ccc2nc(N3CCC3)nc(NCc3ccc(NC(=O)C4CCN(Cc5ccccc5)CC4)cc3)c2c1` [Example 84, N-(4-{[(2-azetidin-1-yl-6-methylquinazolin-4-yl)amino]methyl}phenyl)-1-benzylpiperidine-4-carboxamide]: the IC50 in the assay on β-catenin/Tcf-4 (setting [1]) is 423 nM; in the assay with β-catenin/Tcf-4 (setting [2]) it was 434 nM; in the assay with SV40-Luc, more than 9310 nM.

Consider `Cc1ccc2nc(N3CCN[C@H](C)C3)nc(NCc3ccc(NC(=O)C4CCN(Cc5ccccc5)CC4)cc3)c2c1` [Example 85, 1-benzyl-N-{4-[({6-methyl-2-[(3R)-3-methylpiperazin-1-yl]quinazolin-4-yl}amino)methyl]phenyl}piperidine-4-carboxamide], for which the half-maximal inhibitory concentration (IC50) in the assay on β-catenin/Tcf-4 (setting [1]) is 530 nM; with β-catenin/Tcf-4 (setting [2]) it was 771 nM; in the assay on SV40-Luc it was more than 2220 nM.

For the compound `CN(C)c1nc(NCc2ccc(NC(=O)c3ccc(F)cc3)cc2)c2ccc(CN)cc2n1` [Example 90, N-[4-({[7-(aminomethyl)-2-(dimethylamino)quinazolin-4-yl]amino}methyl)phenyl]-4-fluorobenzamide], the values for the IC50 in the assay with β-catenin/Tcf-4 (setting [1]), with β-catenin/Tcf-4 (setting [2]) and in the assay on SV40-Luc were 1300 nM, 2860 nM and more than 4830 nM, respectively.

Take `C/C=C/c1ccc2c(NCc3ccc(NC(=O)c4ccc(F)cc4)cc3)nc(N(C)C)nc2c1` [Example 96, N-{4-[({2-(dimethylamino)-7-[(1E)-prop-1-en-1-yl]quinazolin-4-yl}amino)methyl]phenyl}-4-fluorobenzamide]: the IC50 was 511 nM in the assay with β-catenin/Tcf-4 (setting [1]), 497 nM with β-catenin/Tcf-4 (setting [2]) and more than 2540 nM in the assay on SV40-Luc.

As for `C/C=C\c1ccc2c(NCc3ccc(NC(=O)c4ccc(F)cc4)cc3)nc(N(C)C)nc2c1` [Example 97, N-{4-[({2-(dimethylamino)-7-[(1Z)-prop-1-en-1-yl]quinazolin-4-yl}amino)methyl]phenyl}-4-fluorobenzamide], the results for the IC50 in the assay on β-catenin/Tcf-4 (setting [1]), in the assay with β-catenin/Tcf-4 (setting [2]) and in the assay with SV40-Luc were 599 nM, 499 nM and more than 2560 nM, respectively.

Regarding `CN(C)c1nc(NCc2ccc(NC(=O)c3ccc(F)cc3)cc2)c2ccc(-c3ccccc3C=O)cc2n1` [Example 98, N-[4-({[2-(dimethylamino)-7-(2-formylphenyl)quinazolin-4-yl]amino}methyl)phenyl]-4-fluorobenzamide], the values for the IC50 with β-catenin/Tcf-4 (setting [1]), in the assay with β-catenin/Tcf-4 (setting [2]) and in the assay on SV40-Luc were 2960 nM, more than 2410 nM and more than 19200 nM, respectively.

Regarding `CN(C)c1nc(NCc2ccc(NC(=O)c3ccc(F)cc3)cc2)c2ccc(-c3ccc(C=O)cc3)cc2n1` [Example 99, N-[4-({[2-(dimethylamino)-7-(4-formylphenyl)quinazolin-4-yl]amino}methyl)phenyl]-4-fluorobenzamide], the IC50 with β-catenin/Tcf-4 (setting [1]) was 2680 nM; with β-catenin/Tcf-4 (setting [2]), 6820 nM; in the assay on SV40-Luc, more than 17900 nM.

Turning to `CN(C)c1nc(NCc2ccc(NC(=O)c3ccc(F)cc3)cc2)c2ccc(-c3cccnc3Cl)cc2n1` [Example 100, N-[4-({[7-(2-chloropyridin-3-yl)-2-(dimethylamino)quinazolin-4-yl]amino}methyl)phenyl]-4-fluorobenzamide], the results for the IC50 in the assay on β-catenin/Tcf-4 (setting [1]), in the assay with β-catenin/Tcf-4 (setting [2]) and in the assay on SV40-Luc were 541 nM, 548 nM and more than 17700 nM, respectively.

For `CN(C)c1nc(NCc2ccc(NC(=O)c3ccc(F)cc3)cc2)c2ccc(-c3cc4ccccc4o3)cc2n1` [Example 101, N-[4-({[7-(1-benzofuran-2-yl)-2-(dimethylamino)quinazolin-4-yl]amino}methyl)phenyl]-4-fluorobenzamide], the values for the half-inhibitory concentration (IC50) with β-catenin/Tcf-4 (setting [1]), with β-catenin/Tcf-4 (setting [2]) and in the assay with SV40-Luc were 2950 nM, 2250 nM and more than 17600 nM, respectively.

Turning to `CN(C)c1nc(NCc2ccc(NC(=O)c3ccc(F)cc3)cc2)c2ccc(/C=C/C(C)(C)C)cc2n1` [Example 102, N-{4-[({2-(dimethylamino)-7-[(1E)-3,3-dimethylbut-1-en-1-yl]quinazolin-4-yl}amino)methyl]phenyl}-4-fluorobenzamide], the results for the IC50 with β-catenin/Tcf-4 (setting [1]), in the assay on β-catenin/Tcf-4 (setting [2]) and in the assay with SV40-Luc were 825 nM, 1340 nM and more than 9360 nM, respectively.

On to `CCCC/C=C/c1ccc2c(NCc3ccc(NC(=O)c4ccc(F)cc4)cc3)nc(N(C)C)nc2c1` [Example 103, N-{4-[({2-(dimethylamino)-7-[(1E)-hex-1-en-1-yl]quinazolin-4-yl}amino)methyl]phenyl}-4-fluorobenzamide], for which the IC50 with β-catenin/Tcf-4 (setting [1]) is 429 nM; with β-catenin/Tcf-4 (setting [2]), 615 nM; in the assay with SV40-Luc, more than 4680 nM.

For the compound `CN(C)c1nc(NCc2ccc(NC(=O)c3ccc(F)cc3)cc2)c2ccc(C3CC3)cc2n1` [Example 104, N-[4-({[7-cyclopropyl-2-(dimethylamino)quinazolin-4-yl]amino}methyl)phenyl]-4-fluorobenzamide], the half-inhibitory concentration (IC50) with β-catenin/Tcf-4 (setting [1]) was 666 nM; with β-catenin/Tcf-4 (setting [2]) it was 1010 nM; in the assay on SV40-Luc it was more than 2540 nM.

Turning to `C[C@H](Nc1nc(N(C)C)nc2cc(I)ccc12)c1ccc(NC(=O)c2ccc(Cl)nc2)cc1` [Example 105, 6-chloro-N-[4-((1S)-1-{[2-(dimethylamino)-7-iodoquinazolin-4-yl]amino}ethyl)phenyl]nicotinamide], the IC50 in the assay on β-catenin/Tcf-4 (setting [1]) was 1470 nM; in the assay on β-catenin/Tcf-4 (setting [2]), 3780 nM; with SV40-Luc, more than 8210 nM.

As for `C=Cc1ccc2c(N[C@@H](C)c3ccc(NC(=O)c4ccc(Cl)nc4)cc3)nc(N(C)C)nc2c1` [Example 106, 6-chloro-N-[4-((1S)-1-{[2-(dimethylamino)-7-vinylquinazolin-4-yl]amino}ethyl)phenyl]nicotinamide], the half-inhibitory concentration (IC50) was 393 nM with β-catenin/Tcf-4 (setting [1]), 551 nM in the assay with β-catenin/Tcf-4 (setting [2]) and more than 9820 nM with SV40-Luc.

Source of the values: US20090004185A1, “AMINO-SUBSTITUTED QUINAZOLINE DERIVATIVES AS INHIBITORS OF BETA-CATENIN/TCF-4 PATHWAY AND CANCER TREATMENT AGENTS” (WYETH, priority 2007, published 2009).
